Data from patent US8946266B2, “Substituted triazole and imidazole derivatives as gamma secretase modulators” (Janssen Pharmaceuticals, Inc., priority 2009, dated 2015).

What was measured:
Aβ42 [1] = assay: γ-secretase-modulating activity, Method 1: Aβ42 sandwich ELISA in supernatant of SKNBE2 cells carrying APP 695-wild type (Table 3a); assay type: cell-based; conditions: 18 h, averaged IC50 values
Protocol: Pharmacology A) Screening of the Compounds of the Invention for γ-Secretase-Modulating Activity A1) Method 1
Screening was carried out using SKNBE2 cells carrying the APP 695-wild type, grown in Dulbecco's Modified Eagle's Medium/Nutrient mixture F-12 (DMEM/NUT-mix F-12) (HAM) provided by Gibco (cat no. 31330-38) containing 5% Serum/Fe supplemented with 1% non-essential amino acids. Cells were grown to near confluency.
The screening was performed using the assay as described in Citron et al (1997) Nature Medicine 3: 67. Briefly, cells were plated in a 96-well plate at about 10^5 cells/ml one day prior to addition of compounds. Compounds were added to the cells in Ultraculture (Lonza, BE12-725F) supplemented with 1% glutamine (Invitrogen, 25030-024) for 18 h. The media were assayed by two sandwich ELISAs, for Aβ42 and Aβtotal. Toxicity of the compounds was assayed by WST-1 cell proliferation reagent (Roche, 1 644 807) according to the manufacturer's protocol.
To quantify the amount of Aβ42 in the cell supernatant, commercially available Enzyme-Linked-Immunosorbent-Assay (ELISA) kits were used (Innotest® β-Amyloid(1-42), Innogenetics N.V., Ghent, Belgium). The Aβ42 ELISA was performed essentially according to the manufacturer's protocol. Briefly, the standards (dilutions of synthetic Aβ1-42) were prepared in polypropylene Eppendorf with final concentrations of 8000 down to 3.9 pg/ml (1/2 dilution step). Samples, standards and blanks (100 μl) were added to the anti-Aβ42-coated plate supplied with the kit (the capture antibody selectively recognizes the C-terminal end of the antigen). The plate was allowed to incubate 3 h at 25° C. in order to allow formation of the antibody-amyloid complex. Following this incubation and subsequent wash steps a selective anti-Aβ-antibody conjugate (biotinylated 3D6) was added and incubated for a minimum of 1 hour (h) in order to allow formation of the antibody-Amyloid-antibody-complex. After incubation and appropriate wash steps, a Streptavidine-Peroxidase-Conjugate was added, followed 30 minutes later by an addition of 3,3′,5,5′-tetramethylbenzidine (TMB)/peroxide mixture, resulting in the conversion of the substrate into a coloured product. This reaction was stopped by the addition of sulfuric acid (0.9 N) and the colour intensity was measured by means of photometry with an ELISA-reader with a 450 nm filter.
To obtain the values reported in Table 3a, the data were calculated as percentage of the maximum amount of amyloid Beta 42 measured in the absence of the test compound. The sigmoidal dose response curves were analyzed using non-linear regression analysis with percentage of the control plotted against the log concentration of the compound. A 4-parameter equation was used to determine the IC50. The values reported in Table 3a are averaged IC50 values.

Aβ42 [2] = assay: γ-secretase-modulating activity, Method 2: Aβ42 Alphalisa in supernatant of SKNBE2 cells carrying APP 695-wild type (Table 3b); assay type: cell-based; conditions: overnight
How it was run: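 SKNBE2 cells expressing wild-type APP695 were incubated overnight at 37° C. with test compound. Secreted Aβ42 was then measured by AlphaLISA, using a C-terminal Aβ42 antibody paired with an N-terminal Aβ antibody. IC50 came from a 4-parameter fit of percent of compound-free control.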

| IC50 (Aβ42 [1]; Homo sapiens) | IC50 (Aβ42 [2]; Homo sapiens) | IC50 (Aβ42 [1]) | IC50 (Aβ42 [2]) | Structure (SMILES) |
| --- | --- | --- | --- | --- |
| 790 nM | 603 nM | – | – | COc1cc(-c2nc(-c3ccccc3)n(C)n2)ccc1-n1cnc(C)c1 [Compound 9] |
| 110 nM | 182 nM | – | – | COc1cc(-c2nc(C)c(-c3ccccc3)[nH]2)ccc1-n1cnc(C)c1 [Compound 11] |
| – | – | 250 nM | 50 nM | COc1cc(-c2nc(Nc3ccc(F)cc3C(F)(F)F)n(C)n2)ccc1-n1cnc(C)c1 [Compound 15] |
| – | – | – | 15 nM | COc1cc(-c2nc(Nc3cccc(C(F)(F)F)c3)n(C)n2)ccc1-n1cnc(C)c1 [Compound 146] |
